The text below walks through data of ChEMBL document CHEMBL1145841, “Design and synthesis of poly ADP-ribose polymerase-1 inhibitors. 2. Biological evaluation of aza-5[H]-phenanthridin-6-ones as potent, aqueous-soluble compounds for the treatment of ischemic injuries” (J Med Chem, 2003).

The first data set deals with Rattus norvegicus. As to the kind of experiment: Cerebral Ischemic stroke was expressed to determine the reduction in infarct volume at a dose of 40 mg/kg administered intravenously i in rats. The following applies: route intravenous. In kind it is functional.
As to `CN1CCN(c2ccc3nc(O)c4ccccc4c3n2)CC1.CS(=O)(=O)O`, the Reduction stood at 18%.

Tested on in a further data set: not listed separately
As to the kind of experiment: Maximum concentration in brain of rats after intravenous administration. In kind it is ADME, organism-based. On the set-up: route intravenous. As to conditions: rat.
In the case of `Cl.O=C(CN1CCC(N2CCCC2)CC1)Nc1ccc2nc(O)c3ccccc3c2n1`, the Cmax – broadly, the peak of the concentration-time curve – was determined as 1440 ng/g.
On the same count and under the same terms, as for `CN1CCN(c2ccc3nc(O)c4ccccc4c3n2)CC1.CS(=O)(=O)O`, the figure is 13700 ng/g; as for `CS(=O)(=O)O.Oc1nc2ccc(N3CCN(CC4CC4)CC3)nc2c2ccccc12`, 8850 ng/g; as for `CS(=O)(=O)O.Oc1nc2ccc(N3CCNCC3)nc2c2ccccc12`, 2180 ng/g.

In the next data set the test system is Rattus norvegicus. As to the kind of experiment: Myocardial Ischemic stroke was expressed to determine the reduction in infarct volume at a dose of 20 mg/kg administered intravenously in rats. In kind it is functional, Myocardium. The following applies: route intravenous.
With `Cl.O=C(CN1CCC(N2CCCC2)CC1)Nc1ccc2nc(O)c3ccccc3c2n1`, the Reduction stood at 13%.

In a further data set the test system is P388. As to the kind of experiment: Effective concentration required to inhibit P388D1 cell death by 50%. In kind it is functional, cell-based. The following applies: Mus musculus.
For the molecule `Cl.O=C(CN1CCC(N2CCCC2)CC1)Nc1ccc2nc(O)c3ccccc3c2n1`, a half-maximal response (EC50) required 1270 nM.
On to `Oc1nc2ccc(N3CCC(N4CCCC4)CC3)nc2c2ccccc12`, for which the EC50 (commonly the concentration needed to bring the measured effect to its halfway point) was determined as 177 nM. Compared with the last molecule, the EC50 is about 7.2-fold lower.
The same measure, in the same setting: in the case of `CN(C)CC(=O)Nc1cnc2c(c1)nc(O)c1ccccc12` it was 2630 nM; in that of `CN1C[C@H]2C[C@@H]1CN2c1ccc2nc(O)c3ccccc3c2n1`, 240 nM; in that of `CN(C)CC(=O)Nc1ccc2nc(O)c3ccccc3c2n1`, 2080 nM.
`O=C(CN1CCC(N2CCCC2)CC1)Nc1cnc2c(c1)nc(O)c1ccccc12` gave a half-maximal effective concentration (EC50) of 1140 nM.
Still for that read-out and setting: as for `CS(=O)(=O)O.Oc1nc2ccc(N3CCN(CC4CC4)CC3)nc2c2ccccc12`, the figure is 145 nM; as for `CN1CCN(c2ccc3nc(O)c4ccccc4c3n2)CC1`, 125 nM; as for `CS(=O)(=O)O.Oc1nc2ccc(N3CCNCC3)nc2c2ccccc12`, 150 nM.
`O=C(CN1CCCCC1)Nc1ccc2nc(O)c3ccccc3c2n1`: the 50% effective concentration (EC50) worked out at 1110 nM. This EC50 is about 7.4-fold higher than that of the molecule before.
Same read-out and setting: as for `C[N+]1([O-])CCN(c2ccc3nc(O)c4ccccc4c3n2)CC1`, the figure is 5800 nM.
`CN(C)C1CCN(c2ccc3nc(O)c4ccccc4c3n2)CC1` yielded an EC50 of 135 nM.

For the next data set, the target named is Poly [ADP-ribose] polymerase 1 (Homo sapiens, UniProt P09874). As to the kind of experiment: Inhibitory activity against Poly (ADP-ribose) polymerase 1.
Chain of Poly [ADP-ribose] polymerase 1 (P09874 whole entry): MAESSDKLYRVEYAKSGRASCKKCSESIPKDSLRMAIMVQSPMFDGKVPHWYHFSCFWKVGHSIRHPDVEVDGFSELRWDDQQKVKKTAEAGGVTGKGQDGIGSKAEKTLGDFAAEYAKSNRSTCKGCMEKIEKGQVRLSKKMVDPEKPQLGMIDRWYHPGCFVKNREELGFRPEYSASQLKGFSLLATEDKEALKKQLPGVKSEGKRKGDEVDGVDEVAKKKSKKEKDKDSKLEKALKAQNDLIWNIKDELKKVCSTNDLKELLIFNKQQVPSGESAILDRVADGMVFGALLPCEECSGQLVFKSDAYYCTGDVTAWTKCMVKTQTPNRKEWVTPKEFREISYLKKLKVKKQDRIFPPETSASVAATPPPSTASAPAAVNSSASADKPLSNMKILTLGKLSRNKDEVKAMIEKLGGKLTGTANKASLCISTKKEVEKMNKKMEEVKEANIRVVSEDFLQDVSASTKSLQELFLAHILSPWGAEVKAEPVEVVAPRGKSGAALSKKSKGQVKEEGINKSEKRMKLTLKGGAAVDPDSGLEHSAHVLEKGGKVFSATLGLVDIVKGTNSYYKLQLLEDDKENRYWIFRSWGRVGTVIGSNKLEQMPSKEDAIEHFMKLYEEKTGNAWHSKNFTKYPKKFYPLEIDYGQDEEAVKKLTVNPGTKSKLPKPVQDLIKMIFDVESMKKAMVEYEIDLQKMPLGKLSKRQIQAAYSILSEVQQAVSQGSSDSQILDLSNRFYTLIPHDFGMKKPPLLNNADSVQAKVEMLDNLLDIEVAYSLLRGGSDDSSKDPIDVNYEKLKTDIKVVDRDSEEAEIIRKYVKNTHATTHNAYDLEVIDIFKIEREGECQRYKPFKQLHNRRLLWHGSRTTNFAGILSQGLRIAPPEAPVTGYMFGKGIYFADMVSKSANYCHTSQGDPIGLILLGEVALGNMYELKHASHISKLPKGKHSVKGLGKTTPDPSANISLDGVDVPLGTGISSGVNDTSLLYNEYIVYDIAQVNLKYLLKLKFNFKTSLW
Settings: not given
In the case of `O=c1[nH]c2ccccc2c2ccccc12`, the midpoint of inhibition, the IC50, lay at 350 nM. In other words, the sub-micromolar range.
For the molecule `CC(C)N1CCN(CC(=O)Nc2ccc3nc(O)c4ccccc4c3n2)CC1`, inhibition was half-maximal at 277 nM (IC50).
On the same count and under the same terms, as for `CC(C)(C)OC(=O)N1C[C@H]2C[C@@H]1CN2c1ccc2[nH]c(=O)c3ccccc3c2n1`, the figure is 774 nM; as for `CCN(CC)CCNc1ccc2[nH]c(=O)c3ccccc3c2n1`, 173 nM; as for `CS(=O)(=O)O.Oc1nc2ccc(N3CCN(CC4CC4)CC3)nc2c2ccccc12`, 71 nM.
Turning to `Oc1nc2ccc(N3C[C@H]4C[C@@H]3CN4)nc2c2ccccc12`, the midpoint of inhibition, the IC50, lay at 42 nM.
On the same count and under the same terms, as for `NC(=O)c1ccccc1` [BENZAMIDE], the figure is 20000 nM.
Still for that read-out and setting: in the case of `CS(=O)(=O)O.Oc1nc2ccc(N3CCNCC3)nc2c2ccccc12` it was 58 nM; in that of `Nc1ccc2[nH]c(=O)c3ccccc3c2n1`, 209 nM.
Turning to `O=c1[nH]c2cnccc2c2ccccc12`, half-maximal inhibition (IC50) was put at 169 nM.
Still for that read-out and setting: as for `CN(C)C1CCN(c2ccc3nc(O)c4ccccc4c3n2)CC1`, the figure is 112 nM.

In another data set the test system is Rattus norvegicus. Description: Cerebral Ischemic stroke was expressed to determine the reduction in infarct volume at a dose of 80 mg/kg administered intraperitoneally in rats. As to conditions: route intraperitoneal. In kind it is functional.
With `O=c1[nH]c2cccnc2c2ccccc12`, the Reduction is given as 55%.

A further data set relates to Rattus norvegicus. As to the kind of experiment: Cerebral Ischemic stroke was expressed to determine the reduction in infarct volume at a dose of 80 mg/kg administered intravenously in rats. As to conditions: route intravenous. In kind it is functional.
On to `Cl.O=C(CN1CCC(N2CCCC2)CC1)Nc1ccc2nc(O)c3ccccc3c2n1`, for which the Reduction is reported as -1%.

Tested on in another data set: not listed separately
As to the kind of experiment: Maximum concentration in heart of rats after intravenous administration. In kind it is ADME, organism-based. Set-up: route intravenous. As to conditions: rat.
In turn, `Cl.O=C(CN1CCC(N2CCCC2)CC1)Nc1ccc2nc(O)c3ccccc3c2n1` yielded a Cmax of 38400 ng/g.
`CN1CCN(c2ccc3nc(O)c4ccccc4c3n2)CC1.CS(=O)(=O)O`: the concentration peaked (Cmax) at 2980 ng/g.
On the same count and under the same terms, in the case of `CS(=O)(=O)O.Oc1nc2ccc(N3CCN(CC4CC4)CC3)nc2c2ccccc12` it was 7480 ng/g; in that of `CS(=O)(=O)O.Oc1nc2ccc(N3CCNCC3)nc2c2ccccc12`, 20300 ng/g.

A further data set relates to Rattus norvegicus. Description: Cerebral Ischemic stroke was expressed to determine the reduction in infarct volume at a dose of 80 mg/kg administered intravenously i in rats. In kind it is functional. The following applies: route intravenous.
With `CN1CCN(c2ccc3nc(O)c4ccccc4c3n2)CC1.CS(=O)(=O)O`, the Reduction came to 35%.

The next data set has as its system Rattus norvegicus. Description: Cerebral Ischemic stroke was expressed to determine the reduction in infarct volume at a dose of 40 mg/kg administered intraperitoneally in rats. In kind it is functional. As to conditions: route intraperitoneal.
Turning to `O=c1[nH]c2ccccc2c2ccccc12`, the Reduction was -7%.
`Oc1nc2ccncc2c2ccccc12`: the Reduction was 47%.

The next data set deals with Rattus norvegicus. Description: Myocardial Ischemic stroke was expressed to determine the reduction in infarct volume at a dose of 80 mg/kg administered intravenously in rats. In kind it is functional, Myocardium. As to conditions: route intravenous.
For `Cl.O=C(CN1CCC(N2CCCC2)CC1)Nc1ccc2nc(O)c3ccccc3c2n1`, the Reduction came to 44%.
Take `CN1CCN(c2ccc3nc(O)c4ccccc4c3n2)CC1.CS(=O)(=O)O`: the Reduction turned out to be 25.5%.

The next data set concerns Rattus norvegicus. Description: Cerebral Ischemic stroke was expressed to determine the reduction in infarct volume at a dose of 20 mg/kg administered intravenously i in rats. In kind it is functional. As to conditions: route intravenous.
For `CN1CCN(c2ccc3nc(O)c4ccccc4c3n2)CC1.CS(=O)(=O)O`, the Reduction was determined as 33%.

The next data set has as its system Rattus norvegicus. Description: Myocardial Ischemic stroke was expressed to determine the reduction in infarct volume at a dose of 40 mg/kg administered intravenously in rats. In kind it is functional, Myocardium. The following applies: route intravenous.
As to `Cl.O=C(CN1CCC(N2CCCC2)CC1)Nc1ccc2nc(O)c3ccccc3c2n1`, the Reduction worked out at 39%.
On the same count and under the same terms, in the case of `CN1CCN(c2ccc3nc(O)c4ccccc4c3n2)CC1.CS(=O)(=O)O` it was 18.8%; in that of `CS(=O)(=O)O.Oc1nc2ccc(N3CCN(CC4CC4)CC3)nc2c2ccccc12`, 36%.

Tested on in another data set: not listed separately
As to the kind of experiment: Maximum concentration in plasma of rats after intravenous administration. In kind it is ADME, organism-based. On the set-up: route intravenous. As to conditions: rat.
`Cl.O=C(CN1CCC(N2CCCC2)CC1)Nc1ccc2nc(O)c3ccccc3c2n1` came in with a peak concentration (Cmax) of 4790 ng/mL.
On the same count and under the same terms, in the case of `CN1CCN(c2ccc3nc(O)c4ccccc4c3n2)CC1.CS(=O)(=O)O` it was 456 ng/mL.
The molecule `CS(=O)(=O)O.Oc1nc2ccc(N3CCN(CC4CC4)CC3)nc2c2ccccc12` registered a Cmax of 1950 ng/mL.
Same read-out and setting: as for `CS(=O)(=O)O.Oc1nc2ccc(N3CCNCC3)nc2c2ccccc12`, the figure is 3790 ng/mL.
Same read-out and setting: as for `C[N+]1([O-])CCN(c2ccc3nc(O)c4ccccc4c3n2)CC1`, the figure is 10 ng/mL.

The next data set deals with Rattus norvegicus. Description: Cerebral Ischemic stroke was expressed to determine the reduction in infarct volume at a dose of 40 mg/kg administered intravenously in rats. In kind it is functional. As to conditions: route intravenous.
As to `CN1CCN(c2ccc3nc(O)c4ccccc4c3n2)CC1.CS(=O)(=O)O`, the Reduction was 44%.
